Assays:
[1] = biological target: T1, LTD4 in guinea pig ileum and trachea (Cavia porcellus, UniProt Q2NNR5); test: cumulative concentration-response curves to LTD4 in guinea pig ileum and trachea (KB by method of Furchgott); conditions: negative log of the dissociation KB, 30 minute incubation, LTD4 agonist
T1 construct: from tissue; host or cells: isolated ileum and trachea of guinea pigs (male Hartley stated for the ileum test)
T1 sequence (Q2NNR5 1-340): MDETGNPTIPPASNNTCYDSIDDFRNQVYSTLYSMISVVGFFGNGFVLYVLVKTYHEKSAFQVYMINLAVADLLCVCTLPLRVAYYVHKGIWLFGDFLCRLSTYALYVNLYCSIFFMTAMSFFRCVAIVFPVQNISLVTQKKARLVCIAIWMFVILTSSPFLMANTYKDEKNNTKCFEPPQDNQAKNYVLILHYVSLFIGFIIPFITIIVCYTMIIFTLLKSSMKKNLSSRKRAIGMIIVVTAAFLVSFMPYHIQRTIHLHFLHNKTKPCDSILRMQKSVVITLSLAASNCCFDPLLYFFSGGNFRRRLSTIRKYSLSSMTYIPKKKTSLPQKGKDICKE
Protocol: (§1) Male, Hartley guinea pigs weighing 200-450 grams were killed by decapitation. A section of terminal ileum was removed, the lumen cleaned, and the tissue divided into 2.5 cm segments. The ilea were mounted in 10 ml tissue baths containing Krebs-bicarbonate solution of the following composition in mmoles/liter: KCl, 4.6; CaCl2 ·2H2 O, 1.2; KH2 PO4, 1.2; MgSO4 ·7H2 O, 1.2; NaCl, 118.2; NaHCO3, 24.8; and dextrose, 10.0. The bath fluid was maintained at 37° C. and aerated with 95 percent oxygen and 5 percent CO2. In addition, the buffer contained 1×10^-6 M atropine to reduce ileal spontaneous activity. Isometric measurements were made with a Grass FT03C force-displacement transducer and recorded on a Grass polygraph as change in grams of force. A passive force of 0.5 g. was applied to the tissues. After an appropriate equilibration period, single submaximal control responses to pure LTD4 were obtained. Following a five minute exposure of the ileum to an experimental drug, the control concentration of LTD4 was added to the tissue bath. The response of the ileum to LTD4 in the presence of the drug was compared to the response in the absence of the drug. Various degrees of LTD4 antagonism were obtained using 2-4 different concentrations of an experimental compound on a single ileum.
For some of the drugs in this series a more detailed analysis of LTD4 antagonism was made. In these experiments, cumulative concentration-response curves were obtained to LTD4 in guinea pig ileum and trachea. This was followed by a 30 minute incubation with various concentrations of the experimental drug. The concentration response curve to LTD4 was then repeated in the presence of an antagonist. Only one concentration of antagonist was used on a single tissue. KB values were calculated by the method of Furchgott [Ann. N.Y. Acad. Sci., 139, 553 (1967)] using the following equation. [formula]
Dose effect ratio refers to the concentration of agonist required to elicit 50 percent of the maximal response (ED50) in the presence of the antagonist divided by the ED50 in the absence of the antagonist. Calculations were performed with the aid of a computer and a digital plotter. The negative log of the dissociation KB ("pKB ") is given for some of the compounds in the table below.
(§2) Percent inhibition of LTD4 evoked ileal contractions

[2] = test system: LTD4 evoked ileal contractions; test: LTD4 antagonism: inhibition of LTD4 evoked contractions of isolated guinea pig ileum; design: species or system Male, Hartley guinea pigs; conditions: 5 min exposure to drug, 50% inhibition of LTD4 responses, 37° C.
Protocol: as §1, §2

[3] = test system: pressor response to leukotriene D4; test: decrease of LTD4 pressor response in pithed rats; type: in vivo, Adult male Sprague-Dawley rats; conditions: Rattus norvegicus, iv, 0.25 h, 15 minutes prior to leukotriene D4 challenge (10 μg/kg, i.v.); dose to decrease pressor response by 50%
Protocol: A further measure of the final product's activity is their ability to decrease the pressor response in pithed rats that are challenged by LTD4. This activity is measured by the following standard procedure
Adult male Sprague-Dawley rats, weighting approximately 300-500 grams, are anesthetized with pentobarbital sodium (60 mg/kg, i.p.). The trachea is cannulated and the rats are ventilated with room air delivered from a rodent respirator (Harvard, model 680; tidal volume of 1 ml/100 grams body weight, 60 cycles/minute). Rats are pithed by passing a steel rod through the right orbit and down the entire length of the spinal column. The rod is left in position for the duration of the experiment. Pulsatile arterial blood pressure is measured from a cannulated carotid artery using a Stathamtransducer (P231D). Mean arterial blood pressure is calculated as diastolic pressure plus 1/3 pulse pressure. Drug solutions are administered i.v. through a catheter placed in a jugular vein. Arterial blood pressure is recorded on a multichannel oscillograph (Beckman, model R511A).
Groups of pithed rats, usually 4-6/group, are pretreated i.v. with a dose of test compound or vehicle (control experiments) 15 minutes prior to leukotriene D4 challenge (10 μg/kg, i.v.). Usually 3-4 doses of the test compound are evaluated in a given study. Blood pressure responses to leukotriene D4 in control and drug-treated pithed rats are then compared and an ED50 dose of antagonist is estimated. ED50 (95% confidence interval) is the calculated dose of antagonist (mg/kg, i.v.) required to decrease the pressor response to leukotriene D4 by 50%.
The ED50 values of selected final products of Formula I are set forth below in Table 2.

Compound | pKB [1] | -log IC50 [2] | ED50 [3]
CCCc1c(OCCCCc2nnn(Cc3ccc(C(=O)O)cc3)n2)ccc(C(C)=O)c1O [Example 31, 5-[4-(4-Acetyl-3-hydroxy-2-propylphenoxy)butyl]-2H-tetrazole-2-(α-methylene-p-benzoic acid)] | 7.190 | 7.75 | 6.5 mg/kg
CCCc1c(OCCCCc2nnn(Cc3ccc(Cc4nn[nH]n4)cc3)n2)ccc(C(C)=O)c1O [Example 54] | 7.10 | – | 22.4 mg/kg
CCCc1c(OCCCCc2nnn(Cc3ccc(C(=O)O)c(O)c3)n2)ccc(C(C)=O)c1O [Example 55, 5-[4-(4-Acetyl-3-hydroxyl-2-(n-propyl)phenoxy)-butyl]-2H-tetrahydrazole-2-[4-(methylene)salicylic acid]] | 6.89 | – | 22 mg/kg
CCCc1c(OCCCCc2nnnn2Cc2ccc(C(=O)O)cc2O)ccc(C(C)=O)c1O [Example 56, 5-[4-(4-Acetyl-3-hydroxy-2-(n-propyl)phenoxy)butyl]-1H-tetrazole-1-[(4-methylene)-3-hydroxybenzoic acid]] | 6.40 | – | –
CCCc1c(OCCCCc2nnn(Cc3ccc(C(=O)O)cc3O)n2)ccc(C(C)=O)c1O [Example 57, 5-[4-(4-Acetyl-3-hydroxy-2-(n-propyl)phenoxy)butyl]-2H-tetrazole-2-[4-(methylene)3-hydroxybenzoic acid]] | 7.06 | – | 19.8 mg/kg
CCCc1c(Oc2ccc(-c3nnn(Cc4ccc(C(=O)O)cc4)n3)cc2)ccc(C(C)=O)c1O [Example 58, 5-[Para-(4-Acetyl-3-hydroxy-2-(n-propyl)phenoxy)phenyl]-2H-tetrazole-2-[para(methylene)benzoic acid]] | 7.00 | – | –

— patent US4820723A, “Disubstituted tetrazole leukotriene antagonists and methods for their use thereas” (Eli Lilly and Company, priority 1987, dated 1989)
